In PubChem BioAssay (NCI):
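Values below derive from 48-hour exposures of cells grown in 96-well plates, with endpoints linearly interpolated between the two concentrations bracketing the appropriate inhibition level. Here, GI50 denotes the concentration required for 50% inhibition of growth. TGI: concentration producing complete growth inhibition.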

How the values were obtained:
Assay in all cases: growth of human tumour cells (NCI), 48 h
KM12 colon = tested on: KM12 colon
A549 NSCLC = tested on: A549 NSCLC
SK-OV-3 ovarian = tested on: SK-OV-3 ovarian
CCRF-CEM leukemia = tested on: CCRF-CEM leukemia
PC-3 prostate = tested on: PC-3 prostate
NCI-H522 lung = tested on: NCI-H522 lung
LOX IMVI melanoma = tested on: LOX IMVI melanoma
MALME-3M melanoma = tested on: MALME-3M melanoma
UO-31 renal = tested on: UO-31 renal
COLO 205 colon = tested on: COLO 205 colon
UACC-257 melanoma = tested on: UACC-257 melanoma
NCI-H23 lung = tested on: NCI-H23 lung
K-562 leukemia = tested on: K-562 leukemia
T-47D breast = tested on: T-47D breast
OVCAR-4 ovarian = tested on: OVCAR-4 ovarian
SK-MEL-28 melanoma = tested on: SK-MEL-28 melanoma
MOLT-4 leukemia = tested on: MOLT-4 leukemia
SN12C renal = tested on: SN12C renal
MDA-MB-231 breast = tested on: MDA-MB-231 breast
TK-10 renal = tested on: TK-10 renal
NCI/ADR-RES ovarian = tested on: NCI/ADR-RES ovarian
HCT-116 colon = tested on: HCT-116 colon
786-0 renal = tested on: 786-0 renal
DU-145 prostate = tested on: DU-145 prostate
SK-MEL-2 melanoma = tested on: SK-MEL-2 melanoma
IGROV1 ovarian = tested on: IGROV1 ovarian
SF-268 CNS = tested on: SF-268 CNS
UACC-62 melanoma = tested on: UACC-62 melanoma
U251 CNS = tested on: U251 CNS
A498 renal = tested on: A498 renal
HT29 colon = tested on: HT29 colon
RXF 393 renal = tested on: RXF 393 renal
OVCAR-5 ovarian = tested on: OVCAR-5 ovarian
SK-MEL-5 melanoma = tested on: SK-MEL-5 melanoma
SR leukemia = tested on: SR leukemia
BT-549 breast = tested on: BT-549 breast
HOP-92 NSCLC = tested on: HOP-92 NSCLC
OVCAR-8 ovarian = tested on: OVCAR-8 ovarian
NCI-H460 lung = tested on: NCI-H460 lung
M14 melanoma = tested on: M14 melanoma
NCI-H226 lung = tested on: NCI-H226 lung
HL-60(TB) leukemia = tested on: HL-60(TB) leukemia
SF-295 CNS = tested on: SF-295 CNS
HS 578T breast = tested on: HS 578T breast
HOP-62 NSCLC = tested on: HOP-62 NSCLC
HCT-15 colon = tested on: HCT-15 colon
EKVX NSCLC = tested on: EKVX NSCLC
MCF7 breast = tested on: MCF7 breast
SNB-19 CNS = tested on: SNB-19 CNS
OVCAR-3 ovarian = tested on: OVCAR-3 ovarian
CAKI-1 renal = tested on: CAKI-1 renal
MDA-MB-435 = tested on: MDA-MB-435
SW-620 colon = tested on: SW-620 colon
SF-539 CNS = tested on: SF-539 CNS
ACHN renal = tested on: ACHN renal
HCC-2998 colon = tested on: HCC-2998 colon
RPMI-8226 leukemia = tested on: RPMI-8226 leukemia
SNB-75 CNS = tested on: SNB-75 CNS

COc1cc(-n2cc(-c3ccc(F)cc3)nc2SCc2ccccc2)cc(OC)c1OC
GI50 (KM12 colon): > 100 µM
TGI (KM12 colon): > 100 µM
GI50 (A549 NSCLC): > 100 µM
TGI (A549 NSCLC): > 100 µM
GI50 (SK-OV-3 ovarian): > 100 µM
TGI (SK-OV-3 ovarian): > 100 µM
GI50 (CCRF-CEM leukemia): 17.7 µM
TGI (CCRF-CEM leukemia): 43.8 µM
GI50 (PC-3 prostate): 9.48 µM
TGI (PC-3 prostate): > 100 µM
GI50 (NCI-H522 lung): 89.8 µM
TGI (NCI-H522 lung): > 100 µM
GI50 (LOX IMVI melanoma): > 100 µM
TGI (LOX IMVI melanoma): > 100 µM
GI50 (MALME-3M melanoma): > 100 µM
TGI (MALME-3M melanoma): > 100 µM
GI50 (UO-31 renal): 9.66 µM
TGI (UO-31 renal): > 100 µM
GI50 (COLO 205 colon): > 100 µM
TGI (COLO 205 colon): > 100 µM
GI50 (UACC-257 melanoma): > 100 µM
TGI (UACC-257 melanoma): > 100 µM
GI50 (NCI-H23 lung): > 100 µM
TGI (NCI-H23 lung): > 100 µM
GI50 (K-562 leukemia): 8.1 µM
TGI (K-562 leukemia): > 100 µM
GI50 (T-47D breast): 9.57 µM
TGI (T-47D breast): > 100 µM
GI50 (OVCAR-4 ovarian): > 100 µM
TGI (OVCAR-4 ovarian): > 100 µM
GI50 (SK-MEL-28 melanoma): > 100 µM
TGI (SK-MEL-28 melanoma): > 100 µM
GI50 (MOLT-4 leukemia): 89.2 µM
TGI (MOLT-4 leukemia): > 100 µM
GI50 (SN12C renal): > 100 µM
TGI (SN12C renal): > 100 µM
GI50 (MDA-MB-231 breast): > 100 µM
TGI (MDA-MB-231 breast): > 100 µM
GI50 (TK-10 renal): > 100 µM
TGI (TK-10 renal): > 100 µM
GI50 (NCI/ADR-RES ovarian): > 100 µM
TGI (NCI/ADR-RES ovarian): > 100 µM
GI50 (HCT-116 colon): 18.8 µM
TGI (HCT-116 colon): > 100 µM
GI50 (786-0 renal): > 100 µM
TGI (786-0 renal): > 100 µM
GI50 (DU-145 prostate): > 100 µM
TGI (DU-145 prostate): > 100 µM
GI50 (SK-MEL-2 melanoma): > 100 µM
TGI (SK-MEL-2 melanoma): > 100 µM
GI50 (IGROV1 ovarian): > 100 µM
TGI (IGROV1 ovarian): > 100 µM
GI50 (SF-268 CNS): > 100 µM
TGI (SF-268 CNS): > 100 µM
GI50 (UACC-62 melanoma): > 100 µM
TGI (UACC-62 melanoma): > 100 µM
GI50 (U251 CNS): > 100 µM
TGI (U251 CNS): > 100 µM
GI50 (A498 renal): 37.4 µM
TGI (A498 renal): > 100 µM
GI50 (HT29 colon): 13.4 µM
TGI (HT29 colon): > 100 µM
GI50 (RXF 393 renal): 19.4 µM
TGI (RXF 393 renal): > 100 µM
GI50 (OVCAR-5 ovarian): > 100 µM
TGI (OVCAR-5 ovarian): > 100 µM
GI50 (SK-MEL-5 melanoma): 54.8 µM
TGI (SK-MEL-5 melanoma): > 100 µM
GI50 (SR leukemia): > 100 µM
TGI (SR leukemia): > 100 µM
GI50 (BT-549 breast): > 100 µM
TGI (BT-549 breast): > 100 µM
GI50 (HOP-92 NSCLC): 1.48 µM
TGI (HOP-92 NSCLC): 37 µM
GI50 (OVCAR-8 ovarian): > 100 µM
TGI (OVCAR-8 ovarian): > 100 µM
GI50 (NCI-H460 lung): 77.2 µM
TGI (NCI-H460 lung): > 100 µM
GI50 (M14 melanoma): > 100 µM
TGI (M14 melanoma): > 100 µM
GI50 (NCI-H226 lung): > 100 µM
TGI (NCI-H226 lung): > 100 µM
GI50 (HL-60(TB) leukemia): > 100 µM
TGI (HL-60(TB) leukemia): > 100 µM
GI50 (SF-295 CNS): > 100 µM
TGI (SF-295 CNS): > 100 µM
GI50 (HS 578T breast): > 100 µM
TGI (HS 578T breast): > 100 µM
GI50 (HOP-62 NSCLC): > 100 µM
TGI (HOP-62 NSCLC): > 100 µM
GI50 (HCT-15 colon): > 100 µM
TGI (HCT-15 colon): > 100 µM
GI50 (EKVX NSCLC): > 100 µM
TGI (EKVX NSCLC): > 100 µM
GI50 (MCF7 breast): > 100 µM
TGI (MCF7 breast): > 100 µM
GI50 (SNB-19 CNS): > 100 µM
TGI (SNB-19 CNS): > 100 µM
GI50 (OVCAR-3 ovarian): > 100 µM
TGI (OVCAR-3 ovarian): > 100 µM
GI50 (CAKI-1 renal): > 100 µM
TGI (CAKI-1 renal): > 100 µM
GI50 (MDA-MB-435): > 100 µM
TGI (MDA-MB-435): > 100 µM
GI50 (SW-620 colon): > 100 µM
TGI (SW-620 colon): > 100 µM
GI50 (SF-539 CNS): > 100 µM
TGI (SF-539 CNS): > 100 µM
GI50 (ACHN renal): > 100 µM
TGI (ACHN renal): > 100 µM
GI50 (HCC-2998 colon): > 100 µM
TGI (HCC-2998 colon): > 100 µM
GI50 (RPMI-8226 leukemia): > 100 µM
TGI (RPMI-8226 leukemia): > 100 µM
GI50 (SNB-75 CNS): > 100 µM
TGI (SNB-75 CNS): > 100 µM
